# Bridge positions count the residues as written; N and C are the ends. Peptide text beside a SMILES is read from it. * marks the point of attachment. X1 = O=C(CCOCC(COCCC(=O)NCCOCCOCCOCCOC[C@@]12CO[C@@H](O1)[C@H](NC(=O)C(F)(F)F)[C@@H](O)[C@H]2O)(COCCC(=O)NCCOCCOCCOCCOC[C@@]12CO[C@@H](O1)[C@H](NC(=O)C(F)(F)F)[C@@H](O)[C@H]2O)NC(=O)CCO[C@H]1C[C@H](OCCC(=O)*)C1)NCCOCCOCCOCCOC[C@@]12CO[C@@H](O1)[C@H](NC(=O)C(F)(F)F)[C@@H](O)[C@H]2O
# Target: ASGPR (Homo sapiens (Human), UniProt P07306)
# Assay: Affinity to ASGPR measured by surface plasmon resonance (SPR)
# Assay type: binding
# Conditions: ASGPR ligands with linker, Table 5; read-out: ASGPR_SPR Binding KD
# ASGPR, sequence (P07306 whole entry): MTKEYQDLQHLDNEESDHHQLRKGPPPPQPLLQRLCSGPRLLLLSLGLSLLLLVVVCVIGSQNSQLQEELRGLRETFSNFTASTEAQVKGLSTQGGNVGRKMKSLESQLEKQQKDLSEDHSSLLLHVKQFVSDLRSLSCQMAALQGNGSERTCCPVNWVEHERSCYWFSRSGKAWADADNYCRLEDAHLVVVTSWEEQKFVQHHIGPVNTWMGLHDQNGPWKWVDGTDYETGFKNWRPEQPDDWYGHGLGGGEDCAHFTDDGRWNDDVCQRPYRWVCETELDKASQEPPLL
row,Kd,Molecule
1,< 100 µM,CC(C)C[C@@H]1NC(=O)[C@@H](NC(=O)[C@@H](NC(=O)[C@H](CCC(N)=O)NC(=O)[C@H](Cc2cnc[nH]2)NC(=O)CCO[C@H]2C[C@H](OCCC(=O)NC(COCCC(=O)NCCOCCOCCOCCOC[C@@]34CO[C@@H](O3)[C@H](NC(=O)C(F)(F)F)[C@@H](O)[C@H]4O)(COCCC(=O)NCCOCCOCCOCCOC[C@@]34CO[C@@H](O3)[C@H](NC(=O)C(F)(F)F)[C@@H](O)[C@H]4O)COCCC(=O)NCCOCCOCCOCCOC[C@@]34CO[C@@H](O3)[C@H](NC(=O)C(F)(F)F)[C@@H](O)[C@H]4O)C2)C(C)C)CSSC[C@@H](C(=O)N[C@@H](Cc2ccccc2)C(=O)N[C@@H](CO)C(=O)N[C@H](C(N)=O)[C@@H](C)O)NC(=O)[C@H](C(C)C)NC(=O)[C@@H]2CCCN2C(=O)[C@H](CCCNC(=N)N)NC(=O)CNC(=O)[C@H](CCCNC(=N)N)NC(=O)[C@H](Cc2ccc(O)cc2)NC(=O)[C@H](CO)NC1=O [Compound 31] (X1-HQVCLSYRGRPVCFST-NH2; disulfide 4-13)

# Same assay, conditions: ASGPR ligands, Table 2; Biacore 8K, 25° C., steady state fit; read-out: SPR Binding External Calculation: KD
row,Molecule,Kd
1,"CC(=O)NC[C@@H]1CO[C@H](CO)[C@H](O)[C@@H]1O [Compound A183, N-(((3R,4R,5R,6R)-4,5-dihydroxy-6-(hydroxymethyl)tetrahydro-2H-pyran-3-yl)methyl)acetamide]",100 to 500 µM
2,"N#Cc1sc(N[C@H]2CO[C@H](CO)[C@H](O)[C@@H]2O)nc1Cl [Compound A95, 4-chloro-2-(((3S,4R,5R,6R)-4,5-dihydroxy-6-(hydroxymethyl)tetrahydro-2H-pyran-3-yl)amino)thiazole-5-carbonitrile]",< 100 µM
3,OC[C@H]1OC[C@H](Nc2ncc(F)cc2F)[C@@H](O)[C@H]1O [Compound A103],100 to 500 µM
4,"OC[C@@H]1CO[C@H](CO)[C@H](O)[C@@H]1O [Compound A181, (2R,3R,4R,5R)-2,5-bis(hydroxymethyl)tetrahydro-2H-pyran-3,4-diol]",100 to 500 µM
5,"CO[C@@H]1O[C@H](CO)[C@H](O)[C@H](O)[C@@H]1OC [Compound A217, (2R,3R,4S,5S,6R)-2-(hydroxymethyl)-5,6-dimethoxytetrahydro-2H-pyran-3,4-diol]",> 1000 µM
6,CO[C@@H]1O[C@H](COS(=O)(=O)c2ccc(C)cc2)[C@H](O)[C@H](O)[C@H]1NC(C)=O [Compound A286],< 100 µM
7,"OC[C@H]1OC[C@@H](CN2CCOCC2)[C@@H](O)[C@H]1O [Compound A209, (2R,3R,4R,5R)-2-(hydroxymethyl)-5-(morpholinomethyl)tetrahydro-2H-pyran-3,4-diol]",> 1000 µM
8,"OC[C@H]1OC[C@@H](COc2ccccc2)[C@@H](O)[C@H]1O [Compound A193, (2R,3R,4R,5S)-2-(hydroxymethyl)-5-(phenoxymethyl)tetrahydro-2H-pyran-3,4-diol]",100 to 500 µM

# Now from value to molecule:
row,Kd,Molecule
1,> 1000 µM,"C[C@@H]1[C@H](Oc2ccccc2)O[C@H](CO)[C@H](O)[C@@H]1O [Compound A191, (2R,3R,4R,5S,6S)-2-(hydroxymethyl)-5-methyl-6-phenoxytetrahydro-2H-pyran-3,4-diol]"
2,100 to 500 µM,O=c1nc(N[C@H]2CO[C@H](CO)[C@H](O)[C@@H]2O)[nH]c(=O)[nH]1 [Compound A283]
3,100 to 500 µM,"CO[C@@H]1O[C@H](CO)[C@H](O)[C@H](O)[C@H]1Nc1nc(N2CCOCC2)ns1 [Compound A117, (2R,3R,4R,5R,6R)-2-(hydroxymethyl)-6-methoxy-5-((3-morpholino-1,2,4-thiadiazol-5-yl)amino)tetrahydro-2H-pyran-3,4-diol]"
4,< 100 µM,CO[C@@H]1O[C@H](CO)[C@H](O)[C@H](O)[C@H]1Nc1ncc(Cl)cc1F [Compound A109]

# Same assay, conditions: ASGPR ligands, Table 4; class symbols; read-out: ASGPR_PR Binding KD
row,Molecule,Kd
1,"C=CCO[C@H]1O[C@H](CO)[C@H](O)[C@H](O)[C@H]1Nc1nccc(C(F)(F)F)n1 [Compound A406, (2R,3R,4R,5R,6S)-6-(allyloxy)-2-(hydroxymethyl)-5-((4-(trifluoromethyl)pyrimidin-2-yl)amino)tetrahydro-2H-pyran-3,4-diol]",< 100 µM
2,"COc1cc(Cl)nc(N[C@H]2[C@H]3OC[C@](CO)(O3)[C@H](O)[C@@H]2O)n1 [Compound A292, (1S,2R,3R,4R,5S)-4-((4-chloro-6-methoxypyrimidin-2-yl)amino)-1-(hydroxymethyl)-6,8-dioxabicyclo[3.2.1]octane-2,3-diol]",< 100 µM
3,"CO[C@@H]1O[C@H](CO)[C@H](O)[C@H](O)[C@H]1Nc1ncc(F)cc1F [Compound A383, (2R,3R,4R,5R,6R)-5-((3,5-difluoropyridin-2-yl)amino)-2-(hydroxymethyl)-6-methoxytetrahydro-2H-pyran-3,4-diol]",< 100 µM
4,CO[C@H]1O[C@H](CO)[C@H](O)[C@H](O)[C@H]1Nc1nc(Cl)c(C#N)s1 [Compound A379],< 100 µM
5,CO[C@H]1O[C@H](CO)[C@H](O)C[C@H]1Nc1nc(N2CCOCC2)ns1 [Compound A382],< 100 µM
6,"O=C1OCCN1[C@@H]1CO[C@H](CO)[C@H](O)[C@@H]1O [Compound A223, 3-((3R,4R,5R,6R)-4,5-dihydroxy-6-(hydroxymethyl)tetrahydro-2H-pyran-3-yl)oxazolidin-2-one]",< 100 µM
7,"(2R,3R,4R,5R)-2-(hydroxymethyl)-5-((4-methylpiperazin-1-yl)methyl)tetrahydro-2H-pyran-3,4-diol [Compound A212]",100 to 500 µM
8,"CN(C)c1nsc(N[C@H]2CO[C@H](CO)[C@H](O)[C@@H]2O)n1 [Compound A339, (2R,3R,4R,5S)-5-((3-(dimethylamino)-1,2,4-thiadiazol-5-yl)amino)-2-(hydroxymethyl)tetrahydro-2H-pyran-3,4-diol]",< 100 µM
9,"OC[C@H]1OC[C@H](Nc2cccc(C(F)(F)F)c2)[C@@H](O)[C@H]1O [Compound A355, (2R,3R,4R,5S)-2-(hydroxymethyl)-5-((3-(trifluoromethyl)phenyl)amino) tetrahydro-2H-pyran-3,4-diol]",< 100 µM
10,OC[C@H]1OC[C@H](Nc2cc(Cl)cc(Cl)n2)[C@@H](O)[C@H]1O [Compound A296],< 100 µM
11,OC[C@H]1OC[C@H](Nc2ccnc(C(F)(F)F)n2)[C@@H](O)[C@H]1O [Compound A301],< 100 µM
12,N#Cc1cccc(N[C@H]2CO[C@H](CO)[C@H](O)[C@@H]2O)n1 [Compound A332],< 100 µM

# The next lines start with the values.
row,Kd,Molecule
1,< 100 µM,"CN1CCN(c2nsc(N[C@H]3CO[C@H](CO)[C@H](O)[C@@H]3O)n2)CC1 [Compound A338, (2R,3R,4R,5S)-2-(hydroxymethyl)-5-((3-(4-methylpiperazin-1-yl)-1,2,4-thiadiazol-5-yl)amino)tetrahydro-2H-pyran-3,4-diol]"
2,< 100 µM,OC[C@H]1OC[C@H](Nc2nccc(Cl)c2C(F)(F)F)[C@@H](O)[C@H]1O [Compound A307]
3,< 100 µM,OC[C@@]12CO[C@@H](O1)[C@H](Nc1nc(Cl)nn3cccc13)[C@@H](O)[C@H]2O [Compound A291]
4,< 100 µM,OC[C@H]1OC[C@H](Nc2cccc(C(F)(F)F)n2)[C@@H](O)[C@H]1O [Compound A302]
5,< 100 µM,OC[C@@]12CO[C@@H](O1)[C@H](Nc1nc(Br)ns1)[C@@H](O)[C@H]2O [Compound A288]

# Same assay, conditions: ASGPR ligands, Table 4; numeric lower bounds; read-out: ASGPR_PR Binding KD
row,Molecule,Kd
1,"COC(=O)c1cc(OC)nc(N[C@H]2CO[C@H](CO)[C@H](O)[C@@H]2O)n1 [Compound A374, methyl 2-(((3S,4R,5R,6R)-4,5-dihydroxy-6-(hydroxymethyl)tetrahydro-2H-pyran-3-yl)amino)-6-methoxypyrimidine-4-carboxylate]",> 20 µM
2,"OC[C@H]1OC[C@H](Nc2cc(C(F)(F)F)ccn2)[C@@H](O)[C@H]1O [Compound A356, (2R,3R,4R,5S)-2-(hydroxymethyl)-5-((4-(trifluoromethyl)pyridin-2-yl)amino)tetrahydro-2H-pyran-3,4-diol]",> 20 µM
3,"COC(=O)[C@@H]1CO[C@H](CO)[C@H](O)[C@@H]1O [Compound A401, methyl (3R,4R,5R,6R)-4,5-dihydroxy-6-(hydroxymethyl)tetrahydro-2H-pyran-3-carboxylate]",> 200 µM
4,"Cn1cc([C@@H]2CO[C@H](CO)[C@H](O)[C@@H]2O)cn1 [Compound A394, (2R,3R,4R,5R)-2-(hydroxymethyl)-5-(1-methyl-1H-pyrazol-4-yl)tetrahydro-2H-pyran-3,4-diol]",> 200 µM
5,OC[C@H]1OC[C@H](Nc2cc(Cl)nc(C(F)(F)F)n2)[C@@H](O)[C@H]1O [Compound A328],> 20 µM

# Second part, the molecule after the results:
row,Kd,Molecule
1,> 200 µM,"CC(=O)NCCNC[C@@H]1CO[C@H](CO)[C@H](O)[C@@H]1O [Compound A402, N-(2-((((3R,4R,5R,6R)-4,5-dihydroxy-6-(hydroxymethyl)tetrahydro-2H-pyran-3-yl)methyl)amino)ethyl)acetamide]"
2,> 20 µM,"CSc1cc(N[C@H]2CO[C@H](CO)[C@H](O)[C@@H]2O)nc(C#N)n1 [Compound A351, 4-(((3S,4R,5R,6R)-4,5-dihydroxy-6-(hydroxymethyl)tetrahydro-2H-pyran-3-yl)amino)-6-(methylthio)pyrimidine-2-carbonitrile]"
3,> 20 µM,OC[C@H]1OC[C@H](Nc2nc3ccc(C(F)(F)F)cc3s2)[C@@H](O)[C@H]1O [Compound A322]
4,> 10 µM,"CS(=O)(=O)c1nc(Cl)cc(N[C@H]2CO[C@H](CO)[C@H](O)[C@@H]2O)n1 [Compound A370, (2R,3R,4R,5S)-5-((6-chloro-2-(methylsulfonyl)pyrimidin-4-yl)amino)-2-(hydroxymethyl)tetrahydro-2H-pyran-3,4-diol]"

# Same assay, conditions: extracellular protein degrading compounds, Table 3; read-out: SPR Binding External Calculation: KD (uM) ASGPR
row,Kd,Molecule
1,< 100 µM,CC(C)C[C@H]1NC(=O)[C@@H](CC(=O)[C@@H](NC(=O)[C@H](CCC(N)=O)NC(=O)[C@H](Cc2cnc[nH]2)NC(=O)CCOCCOCCOCCOCCNC(=O)CCCc2cn(CCCC(=O)NCCOCc3cnn(CCOCCOCCOCCO[C@@]45CO[C@@H](O4)[C@H](NC(=O)C(F)(F)F)[C@@H](O)[C@H]5O)c3)nn2)C(C)C)CSSC[C@@H](C(=O)N[C@@H](Cc2ccccc2)C(=O)N[C@@H](CO)C(=O)NC(C=O)[C@@H](C)O)NC(=O)[C@H](C(C)C)NC(=O)[C@@H]2CCCN2C(=O)[C@H](CCCNC(=N)N)NC(=O)CNC(=O)[C@@H](CCCNC(=N)N)NC(=O)[C@H](Cc2ccc(O)cc2)NC(=O)[C@H](CO)CC1=O (stereo partly shown) [Compound 26]

# From patent publication US20240072809A1, “ASGPR-BINDING COMPOUNDS FOR THE DEGRADATION OF EXTRACELLULAR PROTEINS” (Avilar Therapeutics, Inc., priority 2020, published 2024)
